Experimental data from publication PMC6070797 (Marine Drugs, 2018).

Legend:
[1] = tested on: Mouse splenocyte proliferation (T lymphocytes); assay: Immunosuppressive activity: ConA-induced proliferation of mouse splenocytes (T lymphocytes), CCK8; type: cell-based, BALB/c mice; conditions: BALB/c spleen cells, 5 μg/mL ConA, 24 h, mean ± SD of three triplicate experiments
Description: To assess the biological activity of the MPA derivatives, we primarily evaluated their IMPDH2 inhibitory activity with the previously reported enzyme assay method. […] Subsequently, the MPA derivatives were further tested for the in vitro immunosuppressive activity against the proliferation of T lymphocytes. Unsurprisingly, the activity at the cellular level was markedly consistent with their IMPDH2 inhibitory activity.
BALB/c mice were sacrificed by cervical dislocation, and the spleens were removed aseptically. Mononuclear cell suspensions were prepared after cell debris, and clumps were removed. Erythrocytes were depleted with ammonium chloride buffer solution. Lymphocytes were washed and suspended in DMEM medium supplemented with 10% FBS, penicillin (100 U/mL), and streptomycin ([…]). The 5 × 10^5 (150 μL per well) spleen cells in 96-well microtiter plates were cultured at 37 °C in a humidified and 5% CO2-containing incubator for 24 h in the presence or absence of the serious concentrations (ranging from 0.1 to 100 µM) of compounds. The cultures were stimulated with 5 μg/mL of concanavalin A (ConA) to induce T cells proliferative response. After treatment for 24 h, the cell quantity was measured using a CCK8 assay kit according to the manufacturer’s instructions.

[2] = biological target: T1, IMPDH2 (Homo sapiens, UniProt P12268); assay: IMPDH2 enzyme inhibition assay (recombinant protein, absorbance at 340 nm); type: biochemical; conditions: recombinant IMPDH2, IMP and NAD+ substrates, pH 7.2, 37 °C; mean ± SD of three triplicate experiments; read-out: IC50 Inosine-5′-Monophosphate Dehydrogenase (IMPDH2)
T1 construct: made in house; host or cells: Escherichia coli BL21(DE3)
Experimental: The gene encoding IMPDH2 was cloned into the pET-28a vector (Novagen). After the recombinant plasmids were verified by sequencing, the plasmid was transformed into Escherichia coli BL21(DE3) (Invitrogen), which was grown in LB medium at 37 °C to an OD600 (0.8–1.0) and induced by 0.4 mM isopropyl-D-thiogalactopyranoside (IPTG) and grown at 20 °C for 16 h. The cell pellet was harvested and re-suspended in 30 mL buffer (20 mM Tris pH 8.5, 200 mM NaCl, and 10 mM imidazole), followed by disruption on a French press. Cell debris was removed by centrifugation at 21,000 rpm for 30 min. […] The protein was further purified with size exclusion chromatography at 20 mM Tris pH 8.5 and 200 mM NaCl.
The IMPDH2 inhibitory effects of test compounds were measured using the recombinant protein above. The enzyme solution (20 µL, 10 µg/mL), test compounds (10 µL) and buffer (40 µL, 100 mM phosphate buffer, pH 7.2) were pipetted and mixed in a 96-well microtiter plate. The mixture was incubated for 10 min at 37 °C. After incubation, inosine 5′-monophosphate (IMP) substrate solution (30 µL, 2.5 mM) and NAD^+ (30 µL, 5 mM) were added. The reaction can be readily monitored by an increase in optical absorbance at 340 nm. […] The data were imported into Prism (version 5.0, GraphPad) and the IC50 values were calculated by using a standard dose response curve fitting.

IC50 [2]	Compound	IC50 [1]
17.5 ± 1.3 µM	COc1c(C)c2c(c(O)c1C/C=C(\C)CCC(=O)N[C@@H](C)C(=O)O)C(=O)OC2 [Compound 10, N-mycophenoyl-L-alanine]	> 40 µM
0.92 ± 0.08 µM	COCc1c2c(c(O)c(C/C=C(\C)CCC(=O)O)c1OC)C(=O)OC2 [Compound 1, 8-O-methyl mycophenolic acid]	4.21 ± 0.2 µM
0.84 ± 0.11 µM	COc1c(C)c2c(c(O)c1C/C=C(\C)CCC(=O)O)C(=O)OC2OC (stereo not drawn) [Compound 3, 6-(5-carboxy-3-methylpent-2-enyl)-7-hydroxy-3,5-dimethoxy-4-methylphthalan-1-one]	2.76 ± 0.13 µM
12.6 ± 1.86 µM	COc1c(C)c2c(c(O)c1C/C=C(\C)CCC(=O)NCCCC(=O)O)C(=O)OC2 [Compound 7, 6-[5-(1-carboxy-4-N-carboxylate)-3-methylpent-2-enyl]-7-hydroxy-5-methoxy-4-methylphthalan-1-one]	24.6 ± 1.34 µM
–	COc1c(C)c2c(c(O)c1C/C=C(\C)CCC(=O)O)C(=O)OC2 [MPA (11), Mycophenolic acid, reference compound]	0.96 ± 0.05 µM
3.27 ± 0.18 µM	COC(=O)CC/C(C)=C/Cc1c(O)c2c(c(C)c1OC)C(O)OC2=O (stereo not drawn) [Compound 4, 6-(5-methoxycarbonyl-3-methylpent-2-enyl)-3,7-dihydroxy-5-methoxy-4-methylphthalan-1-one]	9.12 ± 0.38 µM
8.59 ± 0.43 µM	COc1c(C)c2c(c(O)c1C/C=C(\C)CCC(=O)OCC(O)CO)C(=O)OC2 (stereo not drawn) [Compound 6, 6-[5-(2,3-dihydroxy-1-carboxyglyceride)-3-methylpent-2-enyl]-7-hydroxy-5-methoxy-4-methylphthalan-1-one]	19.7 ± 0.89 µM
15.7 ± 1.65 µM	COc1c(C)c2c(c(O)c1C/C=C(\C)CCC(=O)N[C@H](C(=O)O)C(C)C)C(=O)OC2 [Compound 8, N-mycophenoyl-L-valine]	30.6 ± 2.19 µM
24.7 ± 2.74 µM	COc1c(C)c2c(c(O)c1CCC(C)C(=O)O)C(=O)OC2 (stereo not drawn) [Compound 5, 6-(3-carboxybutyl)-7-hydroxy-5-methoxy-4-methylphthalan-1-one]	> 40 µM
0.95 ± 0.09 µM	COc1c(C)c2c(c(O)c1C/C=C(\C)CCC(=O)O)C(=O)OC2O (stereo not drawn) [Compound 2, 3-hydroxy mycophenolic acid]	1.23 ± 0.07 µM
23.8 ± 3.54 µM	COc1c(C)c2c(c(O)c1C/C=C(\C)CCC(=O)N[C@@H](Cc1ccccc1)C(=O)O)C(=O)OC2 [Compound 9, N-mycophenoyl-L-phenyloalanine]	> 40 µM
